Data published in patent publication US10538487B2, “Sulfonylureas and related compounds and use of same” (priority 2015, dated 2020).
“And” between values parts separate entries of the source, which are not always exact repeats. Equal values may be shown once.

Experiment: Single dose pharmacokinetic study in mice (iv 4 mg/Kg, po 20 mg/Kg), plasma concentration post-dosing
Type: in vivo, mouse
Details: mouse
Description: This is advantageous leading to comparatively lower doses or less frequent administration. The procedure followed was: Male C57BL/6 mice were used at 7-9 weeks age with 3 animals per group. Mice were dosed with test compound using single intravenous bolus or oral gavage. Blood samples were taken via submandibular or saphenous vein for analysis of plasma concentrations of compound by LC-MS/MS at the following timepoints: IV (3 mice): 0.083, 0.25, 0.5, 1, 2, 4, 8 and 24 hours post dosing, PO (3 mice): 0.25, 0.5, 1, 2, 4, 8 and 24 hours post dosing. LC-MS/MS method for the quantitative determination of test compound in corresponding biological matrix was developed. […] The results are shown graphically in FIGS. 1A to 1C (MCC950) and FIGS. 2A to 2C (MCC7840).

[1] = IV 4 mg/Kg, individual mice M1-M3, 4 mg/kg
[2] = PO 20 mg/Kg, individual mice M4-M6, 20 mg/kg

MRT last (male, C57BL/6, mouse, plasma, po, 20 mg/kg, PO 20 mg/Kg, mean of 3 mice, read-out: MRT0-last, Mean PO): 6.43 h | half-life (male, C57BL/6, mouse, plasma, po, 20 mg/kg, PO 20 mg/Kg, mean of 3 mice, read-out: T1/2, Mean PO (converted)): 5.02 h | Tmax (male, C57BL/6, mouse, plasma, po, 20 mg/kg, PO 20 mg/Kg, mean of 3 mice, read-out: Tmax, Mean PO): 0.25 h | bioavailability (male, C57BL/6, plasma, PO 20 mg/Kg vs IV 4 mg/Kg, Mean PO, read-out: Bioavailability): 67.2% | Plasma concentration, IV Time 5 min (IV 4 mg/Kg, 5 min post dosing, individual mice M1-M3, 4 mg/kg): 41900 ng/mL and 38600 ng/mL | Plasma concentration, IV Time 0.250 h (IV 4 mg/Kg, 0.250 h post dosing, individual mice M1-M3, 4 mg/kg): 29300 ng/mL | Plasma concentration, IV Time 0.500 h (IV 4 mg/Kg, 0.500 h post dosing, individual mice M1-M3, 4 mg/kg): 25200 ng/mL and 24500 ng/mL | Plasma concentration, IV Time 1.00 h (IV 4 mg/Kg, 1.00 h post dosing, individual mice M1-M3, 4 mg/kg): 18900 ng/mL and 17200 ng/mL | Plasma concentration, IV Time 2.00 h (IV 4 mg/Kg, 2.00 h post dosing, individual mice M1-M3, 4 mg/kg): 14700 ng/mL and 19900 ng/mL | Plasma concentration, IV Time 4.00 h (IV 4 mg/Kg, 4.00 h post dosing, individual mice M1-M3, 4 mg/kg): 8550 ng/mL and 8590 ng/mL | Plasma concentration, IV Time 8.00 h (IV 4 mg/Kg, 8.00 h post dosing, individual mice M1-M3, 4 mg/kg): 3360 ng/mL and 4440 ng/mL | Plasma concentration, IV Time 24.0 h (IV 4 mg/Kg, 24.0 h post dosing, individual mice M1-M3, 4 mg/kg): 122 ng/mL and 130 ng/mL | Tlast (IV 4 mg/Kg, individual mice M1-M3): 24.0 h | AUC0-inf [1]: 105.283 µg·h/mL and 116.833 µg·h/mL | AUC0-last [1]: 104.705 µg·h/mL and 116.222 µg·h/mL | AUCExtra [1]: 0.770% and 0.549% and 0.523% | AUMCExtra [1]: 5.23% and 3.81% and 3.41% | C0 [1]: 50100 ng/mL and 44301 ng/mL | Cl [1]: 0.633 mL/min/kg and 0.571 mL/min/kg | MRT0-inf [1]: 4.15 h and 4.40 h | MRT0-last [1]: 4.01 h and 4.28 h | T1/2 [1]: 3.29 h and 3.26 h | Vdss [1]: 0.158 L/kg and 0.151 L/kg | AUCExtra, Mean IV (IV 4 mg/Kg, mean of 3 mice): 0.614% | AUMCExtra, Mean IV (IV 4 mg/Kg, mean of 3 mice): 4.15% | C0, Mean IV (IV 4 mg/Kg, mean of 3 mice): 52245 ng/mL | Tlast, Mean IV (IV 4 mg/Kg, mean of 3 mice): 24.0 h | Plasma concentration, PO Time 24.0 h (PO 20 mg/Kg, 24.0 h post dosing, individual mice M4-M6, 20 mg/kg): 660 ng/mL and 2370 ng/mL and 1370 ng/mL | Tlast (PO 20 mg/Kg, individual mice M4-M6): 24.0 h | AUC0-inf [2]: 251.697 µg·h/mL and 466.063 µg·h/mL | AUCExtra [2]: 0.922% and 9.94% and 1.77% | AUMCExtra [2]: 5.35% and 32.1% and 7.78% | MRT0-last [2]: 8.07 h and 6.41 h | T1/2 [2]: 3.57 h and 7.31 h and 4.18 h | AUCExtra, Mean PO (PO 20 mg/Kg, mean of 3 mice): 4.21% | AUMCExtra, Mean PO (PO 20 mg/Kg, mean of 3 mice): 15.1% | Tlast, Mean PO (PO 20 mg/Kg, mean of 3 mice): 24.0 h
SMILES: CC(C)n1ccc(S(=O)(=O)NC(=O)Nc2c3c(cc4c2CCC4)CCC3)n1 [MCC_007840_002]
Plasma concentration, PO Time 0.250 h (PO 20 mg/Kg, 0.250 h post dosing, individual mice M4-M6, 20 mg/kg): 84300 ng/mL and 27400 ng/mL and 69700 ng/mL | Plasma concentration, PO Time 0.500 h (PO 20 mg/Kg, 0.500 h post dosing, individual mice M4-M6, 20 mg/kg): 70300 ng/mL and 24000 ng/mL and 56600 ng/mL | Plasma concentration, PO Time 1.00 h (PO 20 mg/Kg, 1.00 h post dosing, individual mice M4-M6, 20 mg/kg): 60400 ng/mL and 20900 ng/mL and 45700 ng/mL | Plasma concentration, PO Time 2.00 h (PO 20 mg/Kg, 2.00 h post dosing, individual mice M4-M6, 20 mg/kg): 54900 ng/mL and 19100 ng/mL and 53800 ng/mL | Plasma concentration, PO Time 4.00 h (PO 20 mg/Kg, 4.00 h post dosing, individual mice M4-M6, 20 mg/kg): 32900 ng/mL and 14100 ng/mL and 32800 ng/mL | Plasma concentration, PO Time 8.00 h (PO 20 mg/Kg, 8.00 h post dosing, individual mice M4-M6, 20 mg/kg): 14100 ng/mL and 12800 ng/mL and 29900 ng/mL | AUC0-last [2]: 364.947 µg·h/mL and 226.687 µg·h/mL and 457.808 µg·h/mL | Cmax [2]: 84300 ng/mL and 27400 ng/mL and 69700 ng/mL
